Data reported in US12195437B2, “Lipophenolic flavonoid derivatives useful to reduce carbonyl and oxidative stresses (COS)” (Centre National de la Recherche Scientifique (CNRS), priority 2018, dated 2025).
Entries after “also recorded” stand apart in the source; their conditions may differ.

Experiments:
Type in all cases: cell-based
[1] = Cytotoxicity of lipophenols on ARPE-19 cells (MTT); conditions: human, ARPE-19 cells (retinal pigment epithelium), tested 0-160 μM, read-out: CC50 (cytotoxic concentration 50)
Description: (§1) Cell viability was determined by MTT colorimetric assay. Cells were incubated for 2 h with MTT reagent (0.5 mg/mL). During this incubation time, dehydrogenases of living cells reduced MTT to insoluble purple formazan, which was then dissolved in DMSO. The absorbance at 570 nm and 655 nm of individual wells was measured using a microplate reader (BioRad 550). The percentage of viable cells was calculated as [(OD570 sample−OD655 sample)/(OD570 control−OD655 control)]×100%.
ARPE-19 cells were plated into 96-well plates (4×10^4 cells/well) and cultured for 24 h to reach confluence before lipophenol treatment. […] Control cells were incubated with DMSO (0.2%). The viability of the cells was determined using a MTT colorimetric assay. All samples are expressed as percentage of viability compared to non-treated control cells (normalized at 100% survival).
Results on the measurement of lipophenol toxicity will be discussed in % cell survival at a given lipophenol concentration compared to untreated cells. […] Any concentration of lipophenol resulting in cell survival of less than 5% (zero survival) will be considered a highly toxic concentration.

ARPE-19 cells [2] = assay: Protection of lipophenols against all-trans-retinal toxicity (anti-carbonyl stress activity, MTT); conditions: trans-retinal 15 μM
Description: (§2) ARPE-19 cells (cells from the retinal pigment epithelium) were obtained from ATCC, and were grown following the instructions in Dulbecco's Modified Eagle's Medium (DMEM)/Ham F12 (GIBCO) containing 10% v/v fetal bovine serum (FBS) and 1% v/v penicillin/streptomycin under a humidified air (95%)/CO2 (5%) atmosphere at 37° C. For experimental cell seeding and sub-culturing, cells were dissociated with 0.25% trypsin-EDTA, re-suspended in the culture medium and then plated at 1-3×10^5 cells/mL.
as §1
ARPE-19 cells were plated into 96-well plates (4×10^4 cells/well) and cultured for 24 h to reach confluence before lipophenol treatment. The cell cultures were treated with serum free medium containing lipophenols at different concentrations (0-80 μM) for 1 h. Then all-trans-retinal was added to a final concentration of 15 μM for 4 h, before rinsing with medium. Control cells were incubated with DMSO (0.2%)±all-trans-retinal. The cell viability was determined 16-20 h later using a MTT colorimetric assay. All samples are expressed as percentage of viability compared to non-treated and exposed to all-trans-retinal control cells. Non-treated and non-exposed to all-trans-retinal control cells are normalized at 100% survival.
The results on the measurement of anti-carbonyl stress activity will be discussed in % cell survival gain compared to cells stressed by trans-retinal (at 15 μM) and not treated with lipophenols. Any survival gain greater than +5% will be considered as a proven anti-carbonyl stress activity.

ARPE-19 cells [3] = assay: Protection of lipophenols against ROS production (DCFDA probe, H2O2); conditions: 80 μM lipophenol, H2O2 600 μM
Description: as §2
Reactive oxygen species (ROS) were measured in ARPE-19 cells with the probe DCFDA. The cell permeant reagent DCFDA is deacetylated by cellular esterases to […], which can be oxidized by ROS into the fluorophore 2′,7′-dichlorofluorescein (DCF). ARPE-19 cells were plated into black, opaque bottom 96-well plates (4×10^4 cells/well) and cultured for 24 h to reach confluence before drug treatment. The cell cultures were incubated with 2 μM of DCFDA for 45 min in DMEM/F12 medium without phenol red+1% FBS. The cells were rinsed and incubated with medium containing lipophenols at different concentrations (0-80 μM) for 1 h. Then H2O2 was added to a final concentration of 600 μM for 4 h, followed by the measurement of DCF production by fluorescence spectroscopy with excitation wavelength at 485 nm and emission wavelength at 535 nm. Control cells were incubated with DMSO (0.2%)±DCFDA±H2O2. All samples are expressed as percentage of ROS production compared to non-oxidized control cells (normalized at 100% of ROS production).
The lowest percentages of increase will therefore be representative of the most protective derivatives.

ARPE-19 cells [4] = assay: Protection of lipophenols against photoactivated A2E toxicity (MTT); conditions: from 40 μM lipophenol (plateau), A2E 20 μM, blue light
Description: as §2, §1
ARPE-19 cells were plated into 96-well plates (4×10^4 cells/well) and cultured for 24 h to reach confluence before lipophenol treatment. The cell cultures were treated with serum free DMEM/F12 medium without phenol red containing lipophenols at different concentrations (0-80 μM) for 1 h. Then A2E was added to a final concentration of 20 μM for 6 h, before rinsing with medium. Control cells were incubated with DMSO (0.2%)+A2E. Cells were exposed to intense blue light (4600 LUX) for 30 min to induce phototoxicity of A2E and incubated at 37° C. The cell viability was determined 16-20 h later using a MTT colorimetric assay. All samples are expressed as percentage of viability compared to non-treated and exposed to A2E control cells. Non-treated and non-exposed to A2E control cells are normalized at 100% survival.
Photoactivation of A2E leads to its oxidation and can generate cytotoxic derivatives, in particular carbonyl derivatives responsible for carbonyl stress. Results on lipophenol protection against photoactivated A2E toxicity will be discussed in % cell survival gain compared to cells stressed by A2E and not treated by lipophenols. This additional evaluation was not performed for all synthesized lipophenolic derivatives but only a selection of them to discuss the results obtained.

SMILES | CC50 at 24 h [1] | cell survival gain (anti-carbonyl stress activity) (ARPE-19 cells [2]; 80 μM lipophenol, compared to stressed untreated cells) | gain of % of ROS production compared to non-stressed cells (ARPE-19 cells [3]) | anti-carbonyl stress activity (in words) (ARPE-19 cells [2]; up to 80 μM lipophenol) | cell survival gain against photoactivated A2E (ARPE-19 cells [4])
CCCCC/C=C\C/C=C\CCCCCCCC(=O)O[C@H]1Cc2c(O)cc(O)cc2O[C@@H]1c1ccc(O)c(O)c1 [C-3LA, (9Z,12Z)-(2R,3S)-2-(3,4-dihydroxyphenyl)-5,7-dihydroxy-chroman-3-yl octadeca-9,12-dienoate] | < 160 µM | +11% | +24% | – | –
O=c1c(O)c(-c2ccc(O)c(O)c2)oc2cc(O)cc(O)c12 [quercetin, reference compound] | ~120 µM | – | – | did not show anti-carbonyl stress potency; also recorded: no cellular protection | +36%
